The supplement of paper PMC13380429
Counter-ions that a name gives are not always drawn.

Columns and labels:
Settings in all cases: 72 h
[1] = tested on: Caco-2; test: cell viability relative to DMSO; higher = less toxic
[2] = tested on: Calu-3; test: as above
[3] = tested on: U2OS; test: as above
[4] = tested on: HepG2; test: as above
[5] = tested on: Vero E6; test: as above
[6] = tested on: Caco-2; test: drug sensitivity score (DSS) for viability; higher = more toxic; extreme values may be limits of the assay
[7] = tested on: Calu-3; test: as above
[8] = tested on: U2OS; test: as above
[9] = tested on: HepG2; test: as above
[10] = tested on: Vero E6; test: as above
[11] = tested on: Caco-2; test: relative viability EC50 (midpoint between 100% and the lowest measured viability); higher = less toxic
[12] = tested on: Calu-3; test: as above
[13] = tested on: U2OS; test: as above
[14] = tested on: HepG2; test: as above
[15] = tested on: Vero E6; test: as above

| Compound | cell viability ([1]; 1 nM) [%] | cell viability ([1]; 10 nM) [%] | cell viability ([1]; 100 nM) [%] | cell viability ([1]; 1000 nM) [%] | cell viability ([1]; 10000 nM) [%] | cell viability ([2]; 1 nM) [%] | cell viability ([2]; 10 nM) [%] | cell viability ([2]; 100 nM) [%] | cell viability ([2]; 1000 nM) [%] | cell viability ([2]; 10000 nM) [%] | cell viability ([3]; 1 nM) [%] | cell viability ([3]; 10 nM) [%] | cell viability ([3]; 100 nM) [%] | cell viability ([3]; 1000 nM) [%] | cell viability ([3]; 10000 nM) [%] | cell viability ([4]; 1 nM) [%] | cell viability ([4]; 10 nM) [%] | cell viability ([4]; 100 nM) [%] | cell viability ([4]; 1000 nM) [%] | cell viability ([4]; 10000 nM) [%] | cell viability ([5]; 1 nM) [%] | cell viability ([5]; 10 nM) [%] | cell viability ([5]; 100 nM) [%] | cell viability ([5]; 1000 nM) [%] | cell viability ([5]; 10000 nM) [%] | drug sensitivity score [6] | drug sensitivity score [7] | drug sensitivity score [8] | drug sensitivity score [9] | drug sensitivity score [10] | relative viability EC50 [11] [µM] | relative viability EC50 [12] [µM] | relative viability EC50 [13] [µM] | relative viability EC50 [14] [µM] | relative viability EC50 [15] [µM] |
| --- | --- | --- | --- | --- | --- | --- | --- | --- | --- | --- | --- | --- | --- | --- | --- | --- | --- | --- | --- | --- | --- | --- | --- | --- | --- | --- | --- | --- | --- | --- | --- | --- | --- | --- | --- |
| Cc1cc(SCc2sc(-c3ccc(C(F)(F)F)c(F)c3)nc2C)ccc1OCC(=O)O [GW-0742] | 99.9 | 101 | 89.1 | 106 | 87.2 | 95.1 | 94.8 | 92.5 | 90.5 | 98.3 | 102 | 103 | 97.9 | 104 | 99.7 | 102 | 74.6 | 94 | 90.1 | 99.9 | 96.3 | 101 | 96.7 | 98.3 | 99 | 0 | 0 | 0 | 0 | 0 | > 10 | > 10 | > 10 | > 10 | > 10 |
| CN1CCN(c2ccc3[nH]c(-c4ccc5[nH]c(-c6ccc(O)cc6)nc5c4)nc3c2)CC1 [pibenzimol] | 98.6 | 88.8 | 98 | 100 | 103 | 108 | 93.8 | 106 | 116 | 122 | 103 | 97.2 | 101 | 100 | 93.8 | 101 | 97.4 | 81.2 | 64.1 | 42.7 | 100 | 100 | 96 | 98.9 | 98.3 | 0 | 0 | 0 | 8.8 | 0 | > 10 | > 10 | > 10 | 0.35 | > 10 |
| Cc1cc(O)ccc1Cl [chlorocresol] | 109 | 104 | 100 | 97.4 | 95.1 | 99.8 | 92.3 | 96.3 | 105 | 101 | 105 | 99.6 | 103 | 97.8 | 100 | 100 | 100 | 99 | 103 | 102 | 96.2 | 103 | 100 | 111 | 99.4 | 0 | 0 | 0 | 0 | 0 | > 10 | > 10 | > 10 | > 10 | > 10 |
| CC(C)(C)C(=O)OCOC(=O)[C@@H]1N2C(=O)C[C@H]2S(=O)(=O)C1(C)C [sulbactam-pivoxil] | 99.3 | 90.6 | 93.5 | 98.6 | 101 | 98.5 | 97.4 | 109 | 108 | 101 | 95.7 | 96.6 | 94.9 | 98.6 | 95.3 | 98.2 | 100 | 96.2 | 105 | 103 | 99.3 | 104 | 100 | 99.1 | 99.2 | 0 | 0 | 0 | 0 | 0 | > 10 | > 10 | > 10 | > 10 | > 10 |
| CN1C2CCCC1CC(NC(=O)c1nn(C)c3ccccc13)C2 (stereo not given) [granisetron] | 96.7 | 99.1 | 102 | 105 | 107 | 108 | 106 | 110 | 92.4 | 105 | 105 | 95.8 | 99.9 | 97.8 | 98.1 | 109 | 98.1 | 82.7 | 95.1 | 92.7 | 111 | 102 | 99.9 | 102 | 96.2 | 0 | 0 | 0 | 0 | 0 | > 10 | > 10 | > 10 | > 10 | > 10 |
| CCN(c1cc(C#CCN2CCOCC2)cc(C(=O)NCc2c(C)cc(C)[nH]c2=O)c1C)[C@H]1CC[C@H](N(C)CCOC)CC1 | 92.5 | 103 | 86.4 | 95.3 | 91.6 | 97.6 | 95.3 | 108 | 103 | 103 | 94.3 | 95.7 | 96.4 | 97.7 | 103 | 92.7 | 122 | 112 | 105 | 91.2 | 107 | 96.9 | 95.9 | 96.8 | 102 | 0 | 0 | 0 | 0 | 0 | > 10 | > 10 | > 10 | > 10 | > 10 |
| CCCC(=O)Nc1ncnc2c1ncn2[C@@H]1O[C@@H]2COP(=O)(O)O[C@H]2[C@H]1OC(=O)CCC [bucladesine] | 110 | 101 | 107 | 93.3 | 91.9 | 100 | 92.9 | 92.9 | 94.3 | 108 | 105 | 94.8 | 103 | 97.2 | 100 | 101 | 101 | 93.9 | 99 | 96 | 98.5 | 104 | 97.8 | 104 | 95.2 | 0 | 0 | 0 | 0 | 0 | > 10 | > 10 | > 10 | > 10 | > 10 |
| Cc1ccc(O)c([C@H](CCN(C(C)C)C(C)C)c2ccccc2)c1 [tolterodine] | 102 | 89.6 | 98.5 | 85.9 | 108 | 99.7 | 94.1 | 88.6 | 88.6 | 95.8 | 99.9 | 94.4 | 99.9 | 98.7 | 96.1 | 115 | 98.5 | 102 | 105 | 92.7 | 105 | 99.8 | 102 | 103 | 96.9 | 0 | 0.8 | 0 | 0 | 0 | > 10 | > 10 | > 10 | > 10 | > 10 |
| FC(F)(F)c1ccc(Nc2ncnc3cc(-c4ncccc4C(F)(F)F)ccc23)cc1 [MK-2295] | 100 | 95.8 | 91.9 | 83.9 | 90.6 | 112 | 96.9 | 101 | 100 | 81.9 | 100 | 95.5 | 101 | 98 | 97.5 | 92.7 | 94.9 | 91.5 | 116 | 98.4 | 99.7 | 98 | 98.3 | 97.8 | 95.2 | 1.2 | 0.5 | 0 | 0 | 0 | > 10 | > 10 | > 10 | > 10 | > 10 |
| S=C(S)OC1CC2CC1C1CCCC21 (stereo not given) [D609] | 100 | 99.2 | 102 | 105 | 102 | 99.3 | 102 | 104 | 103 | 98 | 100 | 106 | 96.3 | 102 | 96.6 | 103 | 98.7 | 102 | 100 | 108 | 98.7 | 98 | 102 | 96 | 98.5 | 0 | 0 | 0 | 0 | 0 | > 10 | > 10 | > 10 | > 10 | > 10 |
| CCC[C@@H]1C[C@@H](C(=O)N[C@@H]([C@H]2O[C@H](SC)[C@H](O)[C@@H](O)[C@H]2O)[C@H](C)Cl)N(C)C1 [CLINDAMYCIN HYDROCHLORIDE] | 95.6 | 95.7 | 95.3 | 108 | 108 | 100 | 96.7 | 98.9 | 102 | 102 | 97.6 | 102 | 99.2 | 105 | 103 | 103 | 93 | 104 | 100 | 97.6 | 95.3 | 89.8 | 93.8 | 91.2 | 104 | 0 | 0 | 0 | 0 | 0 | > 10 | > 10 | > 10 | > 10 | > 10 |
| NC(=O)N1c2ccccc2C=Cc2ccccc21 [carbamazepine] | 104 | 96.9 | 98.5 | 97.2 | 102 | 91.2 | 91.9 | 90.3 | 98.4 | 98.9 | 101 | 97.2 | 101 | 96.4 | 104 | 107 | 110 | 88.9 | 98.6 | 101 | 106 | 98.4 | 98.8 | 95.1 | 95.7 | 0 | 0 | 0 | 0 | 0 | > 10 | > 10 | > 10 | > 10 | > 10 |
| C[N+](C)(C)CC[N+]1(C)Cc2c(Cl)c(Cl)c(Cl)c(Cl)c2C1 [chlorisondamine-diiodide] | 92.1 | 93 | 99.9 | 103 | 88.8 | 93.2 | 102 | 102 | 89.8 | 100 | 97.2 | 96.2 | 96.1 | 97.5 | 92.5 | 94 | 110 | 103 | 99.9 | 101 | 100 | 95.5 | 95.7 | 97.4 | 94 | 0 | 0 | 0 | 0 | 0 | > 10 | > 10 | > 10 | > 10 | > 10 |
| CCn1c(N)c(C(=O)NC)c(=O)c2ccc(C#C[C@@](C)(O)COC)nc21 | 105 | 92.8 | 104 | 94.2 | 92.5 | 89.4 | 100 | 103 | 98.3 | 109 | 102 | 96.9 | 98.3 | 97.8 | 97.4 | 92.6 | 102 | 93.2 | 105 | 104 | 94.1 | 98.6 | 94.8 | 99.1 | 104 | 0 | 0 | 0 | 0 | 0 | > 10 | > 10 | > 10 | > 10 | > 10 |
